Assay results taken from US4673674A, “Diazepinoindoles useful for treating depression, schizophrenia, social withdrawal or anxiety and pharmaceutical compositions containing them” (Sandoz Pharmaceuticals Corp., priority 1984, dated 1987).
Where two headings read alike, the source gives them in different places.

Legend:
locomotion in mice = test: inhibition of locomotion in mice (neuroleptic activity); format: in vivo, mice (male, OF-1); conditions: Mus musculus, po, read-out: EDmin (inhibition of locomotion)
Experimental: In this test groups of 3 male mice (18-24 g, OF-1, Sandoz Basle) received 3.2, 10, 32, 100 and 320 mg p.o. of the test drug.

[1] = target: T1, 3H-spiperone binding sites in the brain (calf brain striatal tissue) (Bos taurus, UniProt P20288); test: inhibition of specific 3H-spiperone binding in calf brain striatal tissue; conditions: calf brain striatal membranes, 0.1 nM 3H-spiperone, 5×10^-7 M cinanserin, 40 minutes at room temperature
T1 construct: fresh calf brain striatal tissue was homogenized; from tissue; host or cells: calf brain striatal membranes

[2] = target: T2, 5-HT2 receptors in the rat frontal cortex (Rattus norvegicus, UniProt P14842); test: inhibition of specific 3H-spiperone binding to 5-HT2 receptors in rat frontal cortex; conditions: rat frontal cortex membranes, 1 nM 3H-spiperone, 1 h at 37° C., pH 7.7
T2 construct: Fresh frontal cortex tissue from rat brain is homogenized; from tissue; host or cells: rat frontal cortex membranes
Experimental: This test has been carried out as follows:
Fresh frontal cortex tissue from rat brain is homogenized in a 20 fold volume of Tris-HCl buffer (50 mM, pH 7.7, containing 4 mM CaCl2, 10 μM pargyline, and 0.1% ascorbic acid), and centrifuged. The pellets are resuspended in a 25 fold volume of the same buffer, incubated for 15 min at 37° C., and recentrifuged. The pellets are frozen at -20° C. and resuspended in a 360 fold volume of the same buffer as above before use for the binding experiment. The composition of the assay mixtures (total volume =2 ml) is as follows: 50 mM Tris-HCl pH 7,7, 4 mM CaCl2, 10 μM pargyline, 0.1% ascorbic acid, membranes corresponding to 5 mg of original tissue weight, and 1 nM ^3 H-spiperone. The assays for the determination of nonspecific binding additionally contain cinanserin in a concentration of 1 μM. […] After incubation for 1 hour at 37° C., the assay mixtures are rapidly filtered through Whatman GF/B filters and washed twice with 5 ml of ice cold incubation buffer.

paradoxical sleep (PS) = test: reduction of paradoxical sleep (PS) in the 48 h sleep EEG in rats; format: in vivo; conditions: 3.2-32 mg/kg p.o.
From the text: Kleinlogel "EEG in Drug Research" ed. by Hermann, Gustav Fischer Verlag, Stuttgart, N.Y., 75-88 (1982)].

T2 sequence (P14842 whole entry): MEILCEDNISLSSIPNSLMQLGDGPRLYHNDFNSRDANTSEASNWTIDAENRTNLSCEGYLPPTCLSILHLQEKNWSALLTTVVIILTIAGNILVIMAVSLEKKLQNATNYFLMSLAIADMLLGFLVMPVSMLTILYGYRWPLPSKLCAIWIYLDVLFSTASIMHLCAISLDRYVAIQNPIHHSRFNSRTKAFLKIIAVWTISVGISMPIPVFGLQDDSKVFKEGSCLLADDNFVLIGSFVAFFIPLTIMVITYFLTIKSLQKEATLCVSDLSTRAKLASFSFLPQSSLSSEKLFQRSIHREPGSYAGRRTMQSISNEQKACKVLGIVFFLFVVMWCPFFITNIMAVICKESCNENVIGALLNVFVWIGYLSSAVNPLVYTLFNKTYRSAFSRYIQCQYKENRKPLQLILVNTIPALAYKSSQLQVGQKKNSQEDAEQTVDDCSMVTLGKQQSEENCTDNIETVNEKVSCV
T1 sequence (P20288 whole entry): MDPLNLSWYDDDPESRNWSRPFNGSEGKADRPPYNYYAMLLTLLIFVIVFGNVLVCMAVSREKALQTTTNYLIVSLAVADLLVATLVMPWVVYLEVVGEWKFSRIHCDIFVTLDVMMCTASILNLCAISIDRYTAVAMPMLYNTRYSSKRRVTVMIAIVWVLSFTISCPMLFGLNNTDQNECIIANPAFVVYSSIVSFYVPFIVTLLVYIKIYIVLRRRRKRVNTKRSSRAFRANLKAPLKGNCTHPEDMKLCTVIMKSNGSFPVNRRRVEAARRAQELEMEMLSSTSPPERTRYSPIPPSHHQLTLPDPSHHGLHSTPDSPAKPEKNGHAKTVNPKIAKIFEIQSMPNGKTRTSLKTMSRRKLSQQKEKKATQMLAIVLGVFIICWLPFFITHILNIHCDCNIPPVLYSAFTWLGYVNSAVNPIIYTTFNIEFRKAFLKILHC

Compound | IC50 [2] [µM] | also measured
CN1CCc2c(-c3ccc(Cl)cc3)c3ccccc3n2CC1 [Example 5j] | – | minimal effective dose (locomotion in mice; male mice, 1 hour after administration): 3.2 mg/kg; IC50 [1]: 0.137 µM
CN(C)CCC=C1c2ccccc2CCc2ccccc21 [amitriptyline, reference compound] | 0.015 | reduction of paradoxical sleep (PS) (paradoxical sleep (PS)): reduce further the paradoxical sleep (PS) without rebound
CSc1ccc2c(c1)N(CCC1CCCCN1C)c1ccccc1S2 (stereo not drawn) [thioridazine, reference compound] | – | minimal effective dose (locomotion in mice; 1 h): 10 to 32 mg/kg
c1ccc(-c2c3n(c4ccccc24)CCN(CC2CC2)CC3)cc1 [Example 4, 3-Cyclopropylmethyl-2,3,4,5-tetrahydro-11-phenyl-1H-[1,4]diazepino[1,7-a]indole] | 0.001 to 0.01 | –
CN1CCc2c(-c3ccccc3)c3ccccc3n2CC1 [Example 1, 2,3,4,5-Tetrahydro-3-methyl-11-phenyl-1H-[1,4]diazepino[1,7-a]indole] | 0.001 to 0.01 | –
C=CCN1CCc2c(-c3ccccc3)c3ccccc3n2CC1 [Example 3, 3-Allyl-2,3,4,5-tetrahydro-11-phenyl-1H-[1,4]diazepino-[1,7-a]indole] | 0.001 to 0.01 | –
c1ccc(-c2c3n(c4ccccc24)CCNCC3)cc1 [Example 2, 2,3,4,5,-Tetrahydro-11-phenyl-1H-[1,4]diazepino[1,7-a]indole] | 0.001 to 0.01 | –
